Measurements as given in PMC9853328, “Potent Platinum(IV) Prodrugs That Incorporate a Biotin Moiety to Selectively Target Cancer Cells” (Pharmaceutics, 2022).
Read-outs that look alike come from different tables or passages of the source.

Experiments:
[1] = test system: HT29 colon cancer cells; assay: MTT in vitro cytotoxicity assay, HT29; type: cell-based; details: MTT, 72 h drug exposure, n = 3; read-out: GI50 ± SEM, HT29
Method: (§1) The in vitro cytotoxicity assays were undertaken at Calvary Mater Hospital, Waratah, NSW, Australia, following a method previously published in the literature. A stock solution for each compound was prepared in DMSO (30 mM) and stored at −20 °C. The cell lines used in the study include HT29 colon, U87 glioblastoma, MCF-7 breast, A2780 ovarian, H460 lung, A431 skin, Du145 prostate, BE2-C neuroblastoma, SJ-G2 glioblastoma, MIA pancreas, and cisplatin-resistant ADDP ovarian (subclone of A2780) cancer cells, as well as the non-cancerous-derived MCF10A breast cell line. The cancer cell lines were cultured in a humidified atmosphere 5% CO2 at 37 °C and maintained in Dulbecco’s modified Eagle’s medium (Trace Biosciences, Sydney, Australia), supplemented with 10% foetal bovine serum, sodium bicarbonate (10 mM), penicillin (100 IU/mL), streptomycin (100 µg/mL), and glutamine (4 mM). The non-cancerous MCF10A cell line was maintained in DMEM:F12 (1:1) cell culture media, with 5% heat inactivated horse serum, supplemented with penicillin (50 IU/mL), streptomycin (50 µg/mL), glutamine (2 mM), HEPES (20 mM), epidermal growth factor (20 ng/mL), hydrocortisone (500 ng/mL), cholera toxin (100 ng/mL), and insulin (10 µg/mL). Cells were plated in duplicate in medium (100 µL) at a density of 2500–4000 cells per well in 96-well plates. On day 0, (24 h after plating) when the cells were in logarithmic growth, medium (100 μL) with or without the test agent was added to each well. The growth inhibitory effects were evaluated after 72 h drug exposure, using the MTT (3-(4,5-dimethylthiazol-2-yl)-2,5-diphenyltetrazolium bromide) assay, with the absorbance read at 540 nm. An eight-point dose–response curve was produced, which was used to determine the concentration at which growth was inhibited by 50% (GI50). This calculation was based on the difference between the optical density values on day 0 and those at the end of drug exposure. […] Experiments were conducted on three separate occasions and GI50 values were reported as the mean and standard error of the mean.

[2] = test system: U87 glioblastoma cells; assay: MTT in vitro cytotoxicity assay, U87; type: cell-based; details: 72 h drug exposure, n = 3, read-out: GI50 ± SEM, U87
Method: as §1

[3] = test system: MCF-7 breast cancer cells; assay: MTT in vitro cytotoxicity assay, MCF-7; type: cell-based; details: MTT, 72 h drug exposure, n = 3; read-out: GI50 ± SEM, MCF-7
[4] = test system: A2780 ovarian cancer cells; assay: MTT in vitro cytotoxicity assay, A2780; type: cell-based; details: 72 h drug exposure, n = 3, read-out: GI50 ± SEM, A2780
Method: as §1

[5] = test system: H460 lung cancer cells; assay: MTT in vitro cytotoxicity assay, H460; type: cell-based; details: 72 h drug exposure, n = 3, read-out: GI50 ± SEM, H460
Method: as §1

[6] = test system: A431 skin cancer cells; assay: MTT in vitro cytotoxicity assay, A431; type: cell-based; details: 72 h drug exposure, n = 3, read-out: GI50 ± SEM, A431
Method: as §1

[7] = test system: Du145 prostate cancer cells; assay: MTT in vitro cytotoxicity assay, Du145; type: cell-based; details: 72 h
Method: as §1

[8] = test system: BE2-C neuroblastoma cells; assay: MTT in vitro cytotoxicity assay, BE2-C; type: cell-based; details: 72 h drug exposure, n = 3, read-out: GI50 ± SEM, BE2-C
Method: as §1

[9] = test system: SJ-G2 glioblastoma cells; assay: MTT in vitro cytotoxicity assay, SJ-G2; type: cell-based; details: 72 h drug exposure, n = 3, read-out: GI50 ± SEM, SJ-G2
Method: as §1

[10] = test system: MIA pancreas cancer cells; assay: MTT in vitro cytotoxicity assay, MIA; type: cell-based; details: 72 h drug exposure, n = 3, read-out: GI50 ± SEM, MIA
Method: as §1

[11] = test system: non-cancerous MCF10A breast cell line; assay: MTT in vitro cytotoxicity assay, MCF10A; type: cell-based; details: 72 h drug exposure, n = 3, read-out: GI50 ± SEM, MCF10A
Method: as §1

[12] = test system: cisplatin-resistant ADDP ovarian (subclone of A2780) cancer cells; assay: MTT in vitro cytotoxicity assay, ADDP; type: cell-based; details: 72 h drug exposure, n = 3, read-out: GI50 ± SEM, ADDP
Method: as §1

[13] = test system: ADDP (subclone of A2780) versus A2780 ovarian cancer cell lines; assay: Resistance factor, GI50 in ADDP/GI50 in A2780; type: cell-based
[14] = test system: panel of cancer cell lines; assay: MTT cytotoxicity averaged across the panel of cancer cell lines; type: cell-based
[15] = Lipophilicity by RP-HPLC (logkw); type: physicochemical; details: capacity factor in 100% water
Method: HPLC experiments were carried out using an Agilent Technologies (Melbourne, Australia) 1260 Infinity instrument, equipped with a Phenomenex (Sydney, Australia) Onyx^TM Monolithic C18 reverse phase column (100 × 4.6 mm, 130 Å). The mobile phase was made up of 0.06% TFA in water (solvent A) and 0.06% TFA in an acetonitrile:water (9:1) mixture (solvent B). Samples were eluted over a gradient of 0–100% (% B) for 15 min, at a flow rate of 1 mL/min, with a sample injection volume of 10 µL. Eluting peaks were detected using a PDA at 254 nm.
For lipophilicity experiments, RP-HPLC was utilised to determine the logkw of each compound, similarly to what has been previously published for similar complexes. Samples were eluted at various isocratic percentages, ranging from 18–30% solvent B. To determine the dead volume of the column, potassium iodide was used as an external dead volume marker. The retention time of each sample in each isocratic run ( tr ) and the dead volume time ( t0 ) were both substituted in Equation (1) to calculate the capacity factor ( k ). (1) k=tr−t0/t0
Following this, logk was plotted against the percentage of ACN. For each complex, a minimum of four concentrations of ACN were used. This produced a linear graph with the equation in the form:(2) logk=Sφ+logkw where S is the slope, φ is the percentage of ACN, and logkw is the y-intercept, which represents the capacity factor of the compound in 100% water.
It is important to explore the lipophilicity of a drug, as it is widely believed that increased lipophilicity results in greater cellular accumulation. To understand the lipophilicity of 1–4, RP-HPLC was utilised to determine the logkw of each complex. To calculate this, each complex was eluted at different isocratic percentages, whereby the retention time was used in Equation (1) to calculate the capacity factor (k). The percentage of the organic solvent was then plotted against log k for each isocratic percentage, producing a linear equation that allowed for logkw to be deduced using Equation (2) (Figure S38). The logkw value represents the capacity factor of the compound in 100% water and can be used to compare a series of compounds. Since 1–4 comprise the same axially bound ligand, biotin, the lipophilicity was influenced by the groups on the PL. The logkw of each complex is presented in Table 1, with their corresponding PL. The increasing lipophilicity of the complexes followed the order: 1 < 4 < 2 < 3.

[16] = test system: HT29 colon cancer cells; parameters: method as in earlier work; details: MTT, same method, taken from the literature; ref [18],[46],[47]; read-out: GI50 ± SEM, HT29; cited from earlier work
[17] = test system: U87 glioblastoma cells; parameters: method as in earlier work; details: MTT, same method, taken from the literature; ref [18],[46],[47]; read-out: GI50 ± SEM, U87; cited from earlier work
[18] = test system: MCF-7 breast cancer cells; parameters: method as in earlier work; details: MTT, same method, taken from the literature; ref [18],[46],[47]; read-out: GI50 ± SEM, MCF-7; cited from earlier work
[19] = test system: A2780 ovarian cancer cells; parameters: method as in earlier work; details: MTT, same method, taken from the literature; ref [18],[46],[47]; read-out: GI50 ± SEM, A2780; cited from earlier work
[20] = test system: H460 lung cancer cells; parameters: method as in earlier work; details: MTT, same method, taken from the literature; ref [18],[46],[47]; read-out: GI50 ± SEM, H460; cited from earlier work
[21] = test system: A431 skin cancer cells; parameters: method as in earlier work; details: MTT, same method, taken from the literature; ref [18],[46],[47]; read-out: GI50 ± SEM, A431; cited from earlier work
[22] = test system: Du145 prostate cancer cells; parameters: method as in earlier work; details: MTT, same method, taken from the literature; ref [18],[46],[47]; read-out: GI50 ± SEM, Du145; cited from earlier work
[23] = test system: BE2-C neuroblastoma cells; parameters: method as in earlier work; details: MTT, same method, taken from the literature; ref [18],[46],[47]; read-out: GI50 ± SEM, BE2-C; cited from earlier work
[24] = test system: SJ-G2 glioblastoma cells; parameters: method as in earlier work; details: MTT, same method, taken from the literature; ref [18],[46],[47]; read-out: GI50 ± SEM, SJ-G2; cited from earlier work
[25] = test system: MIA pancreas cancer cells; parameters: method as in earlier work; details: MTT, same method, taken from the literature; ref [18],[46],[47]; read-out: GI50 ± SEM, MIA; cited from earlier work
[26] = test system: non-cancerous MCF10A breast cell line; parameters: method as in earlier work; details: MTT, same method, taken from the literature; ref [18],[46],[47]; read-out: GI50 ± SEM, MCF10A; cited from earlier work
[27] = test system: cisplatin-resistant ADDP ovarian (subclone of A2780) cancer cells; parameters: method as in earlier work; details: MTT, same method, taken from the literature; ref [18],[46],[47]; read-out: GI50 ± SEM, ADDP; cited from earlier work

Compound | Resistance factor (RF) [13] | GI50 [16] [nM] | GI50 [17] [nM] | GI50 [18] [nM] | GI50 [19] [nM] | GI50 [20] [nM] | GI50 [21] [nM] | GI50 [22] [nM] | GI50 [23] [nM] | GI50 [24] [nM] | GI50 [25] [nM] | GI50 [26] [nM] | GI50 [27] [nM] | further results
Cc1c(C)c2ccc[n+]3c2c2c1ccc[n+]2[Pt-2]31([OH])([O]C(=O)CCCC[C@@H]2SC[C@@H]3NC(=O)N[C@@H]32)[NH2+][C@H]2CCCC[C@@H]2[NH2+]1.O=[N+]([O-])[O-].O=[N+]([O-])[O-] [Complex 2, [Pt(5,6-dimethyl-1,10-phenanthroline)(1S,2S-diaminocyclohexane)(biotin)(hydroxido)](NO3)2] | 0.55 |  |  |  |  |  |  |  |  |  |  |  |  | GI50 [1]: 11 ± 5 nM; GI50 [2]: 32 ± 8 nM; GI50 [3]: 22 ± 8 nM; GI50 [4]: 20 ± 4 nM; GI50 [5]: 18 ± 4 nM; GI50 [6]: 36 ± 6 nM; GI50 ([7]; MTT, read-out: GI50, Du145 prostate cancer cell line): 4 nM; number-fold potency against cisplatin, Du145 prostate ([7]; ratio of GI50 values): 300 fold; GI50 [8]: 100 ± 10 nM; GI50 [9]: 36 ± 10 nM; GI50 [10]: 10 ± 2 nM; GI50 [11]: 14 ± 4 nM; GI50 [12]: 11 ± 4 nM; enhanced activity compared to platinum(II) precursor across the cancer cell lines ([14]; across all cancer cell lines): ~ 2 fold; GI50 ([14]; calculated from the panel of cancer cell lines tested (Table S4)): 27 nM; logkw [15]: 0.78
[Cl-].[Cl-].c1cc2ccc3ccc[n+]4c3c2[n+](c1)[Pt-2]41[NH2+][C@H]2CCCC[C@@H]2[NH2+]1 [PHENSS(II)] | 0.793 | 87 ± 27 | 1200 ± 340 | 250 ± 41 | 290 ± 37 | 300 ± 32 | 340 ± 100 | 110 ± 27 | 390 ± 60 | 440 ± 55 | 240 ± 22 | 240 ± 60 | 230 ± 49 | 
O=[N+]([O-])[O-].O=[N+]([O-])[O-].[OH][Pt-2]12([OH])([NH2+][C@H]3CCCC[C@@H]3[NH2+]1)[n+]1cccc3ccc4ccc[n+]2c4c31 [PHENSS(IV)] | 1.625 | 710 ± 300 | 4900 ± 610 | 16000 ± 4500 | 800 ± 84 | 1700 ± 200 | 4300 ± 530 | 310 ± 92 | 3000 ± 530 | 1700 ± 350 | 3400 ± 2200 | 1700 ± 200 | 1300 ± 350 | 
